From ChEMBL document CHEMBL3880411, “Multikinase inhibitors for use in the treatment of cancer” (2009)
pIC50: −log10 of the molar value. Active and inactive are the calls of the source. The rule behind the calls is not given here.

Columns and labels:
[1] = Cytotoxicity against human SK-MEL-31 cells expressing B-RAF V600E mutant assessed as reduction in cell viability after 96 hrs by CellTiter-Glo luminescence assay or methylene blue assay; type: functional, cell-based
[2] = target: Tyrosine-protein kinase Lck (Homo sapiens) (UniProt P06239); experiment: Inhibition of human Lck assessed as remaining activity at 0.1 uM after 40 mins in presence of [gamma33P-ATP] by scintillation counting
Tyrosine-protein kinase Lck (Homo sapiens), sequence (P06239 2-509 limits assumed): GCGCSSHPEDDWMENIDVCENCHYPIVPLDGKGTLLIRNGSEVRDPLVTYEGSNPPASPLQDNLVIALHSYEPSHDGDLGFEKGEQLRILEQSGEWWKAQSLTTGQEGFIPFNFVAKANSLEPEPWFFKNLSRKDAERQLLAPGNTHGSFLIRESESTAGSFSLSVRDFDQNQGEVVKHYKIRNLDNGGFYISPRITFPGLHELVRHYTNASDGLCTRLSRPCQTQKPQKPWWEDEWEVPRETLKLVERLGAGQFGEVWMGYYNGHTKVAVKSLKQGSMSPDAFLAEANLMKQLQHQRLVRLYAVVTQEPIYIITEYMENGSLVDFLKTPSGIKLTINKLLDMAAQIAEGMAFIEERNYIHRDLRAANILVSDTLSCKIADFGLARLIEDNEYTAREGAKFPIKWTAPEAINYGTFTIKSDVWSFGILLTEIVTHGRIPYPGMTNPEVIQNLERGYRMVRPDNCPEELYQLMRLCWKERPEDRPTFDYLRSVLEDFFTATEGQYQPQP

[3] = Antiproliferative activity against human NALM6 cells after 96 hrs by MTT assay; type: functional, cell-based; conditions: NALM-6, 96 h
[4] = target: Nuclear factor NF-kappa-B complex (Homo sapiens) (UniProt Q00653+P19838+Q04206); experiment: Inhibition of NFkappaB (unknown origin); type: protein-complex assay
Nuclear factor NF-kappa-B complex (Homo sapiens), sequence (P19838 whole entry, looked up): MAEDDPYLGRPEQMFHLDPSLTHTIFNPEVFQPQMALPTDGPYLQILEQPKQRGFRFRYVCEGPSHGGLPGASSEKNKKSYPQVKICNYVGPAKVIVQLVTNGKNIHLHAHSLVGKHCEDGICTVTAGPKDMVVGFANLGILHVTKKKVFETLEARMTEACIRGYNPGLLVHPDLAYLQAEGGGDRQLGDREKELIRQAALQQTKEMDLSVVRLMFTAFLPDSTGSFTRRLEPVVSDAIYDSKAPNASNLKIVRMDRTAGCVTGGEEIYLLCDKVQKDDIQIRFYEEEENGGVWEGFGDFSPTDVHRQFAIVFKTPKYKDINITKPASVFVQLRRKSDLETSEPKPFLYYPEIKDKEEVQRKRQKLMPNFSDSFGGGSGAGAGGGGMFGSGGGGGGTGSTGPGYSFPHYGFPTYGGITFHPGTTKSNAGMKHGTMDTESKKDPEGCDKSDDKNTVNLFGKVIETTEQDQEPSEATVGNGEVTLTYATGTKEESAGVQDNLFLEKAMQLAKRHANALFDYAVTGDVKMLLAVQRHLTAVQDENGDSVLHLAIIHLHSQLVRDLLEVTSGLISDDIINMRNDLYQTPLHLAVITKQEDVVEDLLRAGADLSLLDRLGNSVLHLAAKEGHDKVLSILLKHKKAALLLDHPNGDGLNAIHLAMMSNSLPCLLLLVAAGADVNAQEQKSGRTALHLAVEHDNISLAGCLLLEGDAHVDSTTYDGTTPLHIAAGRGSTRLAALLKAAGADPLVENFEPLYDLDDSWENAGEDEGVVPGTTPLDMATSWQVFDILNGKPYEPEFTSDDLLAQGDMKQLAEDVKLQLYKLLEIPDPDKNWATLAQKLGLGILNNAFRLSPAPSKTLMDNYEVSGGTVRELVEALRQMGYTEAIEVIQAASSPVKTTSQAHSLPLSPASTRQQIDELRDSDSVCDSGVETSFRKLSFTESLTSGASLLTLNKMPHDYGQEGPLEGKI
Nuclear factor NF-kappa-B complex (Homo sapiens), sequence (Q00653 whole entry, looked up): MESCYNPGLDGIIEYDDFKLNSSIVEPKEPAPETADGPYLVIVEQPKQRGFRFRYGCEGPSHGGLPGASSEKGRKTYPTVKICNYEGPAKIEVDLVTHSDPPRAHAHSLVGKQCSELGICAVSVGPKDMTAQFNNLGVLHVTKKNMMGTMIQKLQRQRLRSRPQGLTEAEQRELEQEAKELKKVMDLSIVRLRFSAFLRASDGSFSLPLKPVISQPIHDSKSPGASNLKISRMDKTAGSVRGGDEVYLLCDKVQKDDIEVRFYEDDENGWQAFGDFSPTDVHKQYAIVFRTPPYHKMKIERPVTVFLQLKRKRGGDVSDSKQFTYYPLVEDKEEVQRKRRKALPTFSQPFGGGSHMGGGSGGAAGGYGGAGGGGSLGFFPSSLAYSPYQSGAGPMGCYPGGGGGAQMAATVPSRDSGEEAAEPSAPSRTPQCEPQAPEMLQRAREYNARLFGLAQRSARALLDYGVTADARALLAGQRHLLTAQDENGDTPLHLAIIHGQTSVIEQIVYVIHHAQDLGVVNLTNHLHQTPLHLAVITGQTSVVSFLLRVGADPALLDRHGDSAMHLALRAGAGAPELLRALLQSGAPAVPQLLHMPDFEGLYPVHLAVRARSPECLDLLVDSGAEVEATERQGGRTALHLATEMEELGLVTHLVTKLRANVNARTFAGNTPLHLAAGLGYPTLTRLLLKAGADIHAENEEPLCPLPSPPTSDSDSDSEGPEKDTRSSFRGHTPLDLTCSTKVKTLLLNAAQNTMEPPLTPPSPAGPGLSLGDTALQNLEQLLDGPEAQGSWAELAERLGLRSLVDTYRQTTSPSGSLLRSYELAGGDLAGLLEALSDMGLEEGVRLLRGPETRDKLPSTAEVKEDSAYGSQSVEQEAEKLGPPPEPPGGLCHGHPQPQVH
Nuclear factor NF-kappa-B complex (Homo sapiens), sequence (Q04206 whole entry, looked up): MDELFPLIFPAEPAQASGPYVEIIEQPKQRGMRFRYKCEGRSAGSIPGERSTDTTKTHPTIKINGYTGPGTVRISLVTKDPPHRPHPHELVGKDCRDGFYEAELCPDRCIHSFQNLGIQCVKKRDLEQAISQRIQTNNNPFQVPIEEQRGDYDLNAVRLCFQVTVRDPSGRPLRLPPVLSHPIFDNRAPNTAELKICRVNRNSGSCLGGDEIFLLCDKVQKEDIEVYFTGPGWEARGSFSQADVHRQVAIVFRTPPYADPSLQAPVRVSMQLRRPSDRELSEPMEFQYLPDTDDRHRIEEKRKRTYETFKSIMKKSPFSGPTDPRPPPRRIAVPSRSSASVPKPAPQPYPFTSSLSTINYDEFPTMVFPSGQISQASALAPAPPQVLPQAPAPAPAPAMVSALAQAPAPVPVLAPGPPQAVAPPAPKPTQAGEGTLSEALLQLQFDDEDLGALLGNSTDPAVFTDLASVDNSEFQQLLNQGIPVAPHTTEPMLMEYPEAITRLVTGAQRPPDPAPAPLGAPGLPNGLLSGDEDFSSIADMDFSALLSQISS

[5] = (§1) Antitumor activity against human LOX cells expressing B-RAF V600E mutant xenografted in athymic mouse assessed as tumor regression at 10 mg/kg, iv administered for two weekly rounds of five injections daily with two-day rest period between the rounds measured twice weekly from first day of treatment for 3 weeks; type: functional
[6] = Antiproliferative activity against human RPMI8226 cells after 96 hrs by MTT assay; type: functional, cell-based; conditions: RPMI-8226, 96 h
[7] = Cytotoxicity against human SW620 cells expressing K-ras G12V mutant assessed as reduction in cell viability after 96 hrs by CellTiter-Glo luminescence assay or methylene blue assay; type: functional, cell-based; conditions: SW-620, 96 h
[8] = target: T1, Dual specificity mitogen-activated protein kinase kinase 1 (Homo sapiens, UniProt Q02750); experiment: Inhibition of human MEK1 assessed as remaining activity at 0.1 uM after 40 mins in presence of [gamma33P-ATP] by scintillation counting
T1 sequence (Q02750 whole entry): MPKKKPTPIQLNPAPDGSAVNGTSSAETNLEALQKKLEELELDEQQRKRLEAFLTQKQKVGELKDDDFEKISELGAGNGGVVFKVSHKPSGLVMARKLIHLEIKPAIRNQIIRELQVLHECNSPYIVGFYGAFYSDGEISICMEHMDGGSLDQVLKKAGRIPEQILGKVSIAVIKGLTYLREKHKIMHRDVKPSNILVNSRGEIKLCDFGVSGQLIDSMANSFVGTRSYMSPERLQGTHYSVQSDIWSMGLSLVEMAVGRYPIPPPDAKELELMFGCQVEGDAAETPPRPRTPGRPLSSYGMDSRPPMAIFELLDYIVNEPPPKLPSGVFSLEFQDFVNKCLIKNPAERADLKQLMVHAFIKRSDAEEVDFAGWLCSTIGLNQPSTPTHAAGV

[9] = target: Tyrosine-protein kinase ABL1 (Homo sapiens) (UniProt P00519); experiment: Inhibition of human Abl assessed as remaining activity at 1 uM after 40 mins in presence of [gamma33P-ATP] by scintillation counting
Tyrosine-protein kinase ABL1 (Homo sapiens), sequence (P00519 whole entry): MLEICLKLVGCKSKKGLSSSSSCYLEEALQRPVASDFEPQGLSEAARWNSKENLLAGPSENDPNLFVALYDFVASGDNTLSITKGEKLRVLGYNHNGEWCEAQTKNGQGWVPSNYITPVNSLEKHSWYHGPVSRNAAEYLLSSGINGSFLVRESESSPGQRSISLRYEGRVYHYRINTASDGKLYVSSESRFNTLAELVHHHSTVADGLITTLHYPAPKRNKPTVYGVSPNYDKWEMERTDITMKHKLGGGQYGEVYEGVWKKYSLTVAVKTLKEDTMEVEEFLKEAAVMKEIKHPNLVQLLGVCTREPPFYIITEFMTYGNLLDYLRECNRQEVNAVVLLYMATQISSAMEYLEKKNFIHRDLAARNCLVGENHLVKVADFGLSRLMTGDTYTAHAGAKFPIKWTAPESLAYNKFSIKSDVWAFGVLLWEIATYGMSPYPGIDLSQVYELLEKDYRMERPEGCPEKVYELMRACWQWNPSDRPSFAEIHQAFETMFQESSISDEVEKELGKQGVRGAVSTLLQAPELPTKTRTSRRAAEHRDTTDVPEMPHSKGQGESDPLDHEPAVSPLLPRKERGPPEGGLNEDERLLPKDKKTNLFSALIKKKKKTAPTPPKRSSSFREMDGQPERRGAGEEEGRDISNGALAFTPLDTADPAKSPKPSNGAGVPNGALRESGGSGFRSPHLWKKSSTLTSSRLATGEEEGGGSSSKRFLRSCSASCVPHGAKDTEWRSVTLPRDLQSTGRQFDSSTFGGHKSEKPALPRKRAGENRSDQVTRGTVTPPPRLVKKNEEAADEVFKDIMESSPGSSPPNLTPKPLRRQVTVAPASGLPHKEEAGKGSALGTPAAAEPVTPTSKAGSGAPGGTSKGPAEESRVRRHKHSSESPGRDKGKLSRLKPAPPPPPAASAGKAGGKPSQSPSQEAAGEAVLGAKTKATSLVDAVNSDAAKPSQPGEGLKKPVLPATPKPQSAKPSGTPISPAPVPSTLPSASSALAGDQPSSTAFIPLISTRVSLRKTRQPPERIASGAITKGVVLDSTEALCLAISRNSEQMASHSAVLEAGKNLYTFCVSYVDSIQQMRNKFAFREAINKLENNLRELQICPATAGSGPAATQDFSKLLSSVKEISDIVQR

[10] = Cytotoxicity against human MDA-MB-435 cells expressing B-RAF V600E mutant assessed as reduction in cell viability after 96 hrs by CellTiter-Glo luminescence assay or methylene blue assay; type: functional, cell-based; conditions: MDA-MB-435, 96 h
[11] = Cytotoxicity against human IMR90 cells assessed as reduction in cell viability after 96 hrs by CellTiter-Glo luminescence assay or methylene blue assay; type: functional, cell-based; conditions: IMR-90, 96 h
[12] = Cytotoxicity against human DLD1 cells expressing K-ras G13D mutant assessed as reduction in cell viability after 96 hrs by CellTiter-Glo luminescence assay or methylene blue assay; type: functional, cell-based; conditions: DLD-1, 96 h
[13] = Cytotoxicity against human AU565 cells assessed as reduction in cell viability after 96 hrs by CellTiter-Glo luminescence assay or methylene blue assay; type: functional, cell-based; conditions: AU565, 96 h
[14] = Cytotoxicity against human MES-SA cells assessed as reduction in cell viability after 96 hrs by CellTiter-Glo luminescence assay or methylene blue assay; type: functional, cell-based
[15] = Cytotoxicity against human MCF7 cells assessed as reduction in cell viability after 96 hrs by CellTiter-Glo luminescence assay or methylene blue assay; type: functional, cell-based; conditions: MCF7, 96 h
[16] = Antiproliferative activity against human HL60 cells after 96 hrs by MTT assay; type: functional, cell-based; conditions: HL-60, 96 h
[17] = as §1, with “20 to 40” for “10”, “treatment” for “treatment for 3 weeks”; type: functional
[18] = target: Tyrosine-protein kinase Yes (Homo sapiens) (UniProt P07947); experiment: Inhibition of human Yes assessed as remaining activity at 0.1 uM after 40 mins in presence of [gamma33P-ATP] by scintillation counting
Tyrosine-protein kinase Yes (Homo sapiens), sequence (P07947 2-543 limits assumed): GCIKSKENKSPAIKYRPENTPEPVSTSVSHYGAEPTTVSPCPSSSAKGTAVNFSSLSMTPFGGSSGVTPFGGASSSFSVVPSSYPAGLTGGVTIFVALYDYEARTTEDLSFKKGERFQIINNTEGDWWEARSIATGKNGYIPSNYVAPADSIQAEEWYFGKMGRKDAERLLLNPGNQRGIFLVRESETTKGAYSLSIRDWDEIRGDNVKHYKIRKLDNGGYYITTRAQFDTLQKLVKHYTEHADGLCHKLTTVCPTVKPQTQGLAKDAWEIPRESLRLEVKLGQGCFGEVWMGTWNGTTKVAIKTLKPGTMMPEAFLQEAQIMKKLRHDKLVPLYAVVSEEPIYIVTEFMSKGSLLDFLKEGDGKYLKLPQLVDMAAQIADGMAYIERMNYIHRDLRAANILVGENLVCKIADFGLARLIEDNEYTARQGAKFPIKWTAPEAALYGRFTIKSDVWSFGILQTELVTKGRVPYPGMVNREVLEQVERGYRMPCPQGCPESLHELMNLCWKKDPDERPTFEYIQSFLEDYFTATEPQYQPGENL

[19] = target: T1, Dual specificity mitogen-activated protein kinase kinase 1; experiment: Inhibition of human MEK1 assessed as remaining activity at 1 uM after 40 mins in presence of [gamma33P-ATP] by scintillation counting
[20] = Cytotoxicity against human MIAPaCa2 cells expressing K-ras G12C mutant assessed as reduction in cell viability after 96 hrs by CellTiter-Glo luminescence assay or methylene blue assay; type: functional, cell-based; conditions: MIA PaCa-2, 96 h
[21] = Cytotoxicity against human MES-SA/Dx5-Rx1 cells assessed as reduction in cell viability after 96 hrs by CellTiter-Glo luminescence assay or methylene blue assay; type: functional, cell-based
[22] = target: Tyrosine-protein kinase ABL1 (Homo sapiens) (UniProt P00519); experiment: Inhibition of human Abl assessed as remaining activity at 0.1 uM after 40 mins in presence of [gamma33P-ATP] by scintillation counting
[23] = Cytotoxicity against human BxPC3 cells assessed as reduction in cell viability after 96 hrs by CellTiter-Glo luminescence assay or methylene blue assay; type: functional, cell-based; conditions: BXPC-3, 96 h
[24] = Cytotoxicity against human MDA-MB-231 cells expressing K-ras G13D mutant assessed as reduction in cell viability after 96 hrs by CellTiter-Glo luminescence assay or methylene blue assay; type: functional, cell-based; conditions: MDA-MB-231, 96 h
[25] = Cytotoxicity against human SK-MEL-24 cells expressing B-RAF V600E mutant assessed as reduction in cell viability after 96 hrs by CellTiter-Glo luminescence assay or methylene blue assay; type: functional, cell-based; conditions: SK-MEL-24, 96 h
[26] = Cytotoxicity against human HT-29 cells expressing B-RAF V600E mutant assessed as reduction in cell viability after 96 hrs by CellTiter-Glo luminescence assay or methylene blue assay; type: functional, cell-based; conditions: HT-29, 96 h
[27] = Antiproliferative activity against human U266 cells after 96 hrs by MTT assay; type: functional, cell-based; conditions: U-266, 96 h
[28] = Cytotoxicity against human HCT116 cells expressing K-ras G13D mutant assessed as reduction in cell viability after 96 hrs by CellTiter-Glo luminescence assay or methylene blue assay; type: functional, cell-based; conditions: HCT-116, 96 h
[29] = Cytotoxicity against human COLO205 cells expressing B-RAF V600E mutant assessed as reduction in cell viability after 96 hrs by CellTiter-Glo luminescence assay or methylene blue assay; type: functional, cell-based; conditions: COLO 205, 96 h
[30] = Cytotoxicity against human LoVo cells expressing K-ras G13D mutant assessed as reduction in cell viability after 96 hrs by CellTiter-Glo luminescence assay or methylene blue assay; type: functional, cell-based
[31] = Cytotoxicity against human PANC1 cells expressing K-ras G12D mutant assessed as reduction in cell viability after 96 hrs by CellTiter-Glo luminescence assay or methylene blue assay; type: functional, cell-based; conditions: PANC-1, 96 h
[32] = tested on: LOX; experiment: Antitumor activity against human LOX cells expressing B-RAF V600E mutant xenografted in athymic mouse assessed as tumor regression at 10 to 40 mg/kg, iv administered for two weekly rounds of five injections daily with two-day rest period between the rounds measured at end of study; type: functional, organism-based
[33] = Antiproliferative activity against human RL cells after 96 hrs by MTT assay; type: functional, cell-based
[34] = Cytotoxicity against human SK-MEL-2 cells expressing N-ras Q61R mutant assessed as reduction in cell viability after 96 hrs by CellTiter-Glo luminescence assay or methylene blue assay; type: functional, cell-based; conditions: SK-MEL-2, 96 h
[35] = Cytotoxicity against human DU4475 cells expressing B-RAF V600E mutant assessed as reduction in cell viability after 96 hrs by CellTiter-Glo luminescence assay or methylene blue assay; type: functional, cell-based; conditions: DU-4475, 96 h
[36] = Antiproliferative activity against human THP1 cells after 96 hrs by MTT assay; type: functional, cell-based; conditions: THP-1, 96 h
[37] = target: T1, Dual specificity mitogen-activated protein kinase kinase 1; experiment: Competitive inhibition of MEK1 (unknown origin) using ERK2 as substrate after 40 mins by ELISA
[38] = Antiproliferative activity against human K562 cells after 96 hrs by MTT assay; type: functional, cell-based; conditions: K562, 96 h
[39] = target: Tyrosine-protein kinase Lck (Homo sapiens) (UniProt P06239); experiment: Inhibition of human Lck assessed as remaining activity at 1 uM after 40 mins in presence of [gamma33P-ATP] by scintillation counting
[40] = target: Tyrosine-protein kinase Yes (Homo sapiens) (UniProt P07947); experiment: Inhibition of human Yes assessed as remaining activity at 1 uM after 40 mins in presence of [gamma33P-ATP] by scintillation counting
[41] = Cytotoxicity against human SK-MEL-3 cells expressing B-RAF V600E mutant assessed as reduction in cell viability after 96 hrs by CellTiter-Glo luminescence assay or methylene blue assay; type: functional, cell-based; conditions: SK-MEL3, 96 h

Activity [2]: 38% | inhibition [4]: Active | Activity [8]: 30% | Activity [9]: 22% | Activity [18]: 46% | Activity [19]: 4% | Activity [22]: 69% | inhibition [37]: Active | Activity [39]: 3% | Activity [40]: 7%
Structure (SMILES): CNc1cc(O)c2c(c1)/C=C/C[C@H](O)[C@H](O)C(=O)/C=C\[C@@H](C)[C@H](C)OC2=O
pIC50 [1]: 6.68 | pIC50 [3]: 6.19 | Activity [5]: 100% | pIC50 [6]: < 5.32 | pIC50 [7]: 6.68 | pIC50 [10]: 7.30 | pIC50 [11]: < 5.00 | pIC50 [12]: 6.33 | pIC50 [13]: < 5.00 | pIC50 [14]: 5.24 | pIC50 [15]: < 5.00 | pIC50 [16]: 7.30 | Activity [17]: 100% | pIC50 [20]: 6.24 | pIC50 [21]: 6.04 | pIC50 [23]: 6.39 | pIC50 [24]: 6.92 | pIC50 [25]: 7.28 | pIC50 [26]: 7.19 | pIC50 [27]: 6.00 | pIC50 [28]: 6.59 | pIC50 [29]: 7.57 | pIC50 [30]: 7.05 | pIC50 [31]: < 5.00 | Activity [32]: Active | pIC50 [33]: 5.79 | pIC50 [34]: 6.95 | pIC50 [35]: 7.52 | pIC50 [36]: 7.05 | pIC50 [38]: 5.84 | pIC50 [41]: 7.72
